One may read the IC50 as the concentration needed to halve the response being measured. Higher therefore signals weaker potency in that assay.

Structures are written as SMILES. Residue numbers refer to the chain shown, from its start.

IC50 data for one compound are collected here from article PMC10687071 (The Journal of Biological Chemistry, 2023).

The target of test [1] is T1, F87G mutant EAG1 channels (Mus musculus, UniProt Q60603, F87G).
T1 construct: expressed in transfected cells; host or cells: Xenopus laevis oocytes injected with cRNA
T1 sequence (Q60603 1-989 F87G): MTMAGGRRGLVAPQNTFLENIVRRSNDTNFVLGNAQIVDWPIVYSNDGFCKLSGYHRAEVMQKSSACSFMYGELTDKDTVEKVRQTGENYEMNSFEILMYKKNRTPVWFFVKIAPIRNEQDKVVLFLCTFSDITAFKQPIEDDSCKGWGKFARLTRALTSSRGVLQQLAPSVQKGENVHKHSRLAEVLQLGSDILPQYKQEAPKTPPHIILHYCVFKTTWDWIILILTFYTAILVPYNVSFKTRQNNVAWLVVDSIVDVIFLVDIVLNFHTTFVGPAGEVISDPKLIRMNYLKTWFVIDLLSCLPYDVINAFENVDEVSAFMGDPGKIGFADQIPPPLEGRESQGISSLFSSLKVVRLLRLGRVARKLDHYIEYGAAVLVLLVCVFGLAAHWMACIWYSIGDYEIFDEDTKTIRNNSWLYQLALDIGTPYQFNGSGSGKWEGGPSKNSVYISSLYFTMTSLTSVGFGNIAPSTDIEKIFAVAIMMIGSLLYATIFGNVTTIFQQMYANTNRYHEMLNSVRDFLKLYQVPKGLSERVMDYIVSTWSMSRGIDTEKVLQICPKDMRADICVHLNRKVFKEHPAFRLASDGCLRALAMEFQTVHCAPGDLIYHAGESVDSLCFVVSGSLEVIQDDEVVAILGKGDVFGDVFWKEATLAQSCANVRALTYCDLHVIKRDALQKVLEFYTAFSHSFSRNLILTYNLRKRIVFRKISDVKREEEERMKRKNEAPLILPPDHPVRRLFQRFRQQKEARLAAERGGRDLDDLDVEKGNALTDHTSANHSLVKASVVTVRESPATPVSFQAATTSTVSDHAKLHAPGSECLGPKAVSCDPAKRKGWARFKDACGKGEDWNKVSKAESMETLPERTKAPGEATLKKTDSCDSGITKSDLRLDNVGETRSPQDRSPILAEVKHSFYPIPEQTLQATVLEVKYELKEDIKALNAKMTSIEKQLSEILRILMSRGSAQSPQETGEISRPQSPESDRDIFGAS
Kind of test: TEVC recording, imipramine inhibition, F87G mutant. The format is cell-based. The note with it: F87G mutant EAG1 channel, +50 mV. The text has this: (§1) The cDNA encoding wild-type (WT) mouse EAG1 channels in pGH19 vector was kindly provided by G. Robertson (University of Wisconsin-Madison, Madison, WI). The mutant ΔPAS EAG1 channel in pGH19 with the deletion of the PAS domain residues 2 to 130 was generated by Bio Basic Inc and verified by DNA sequencing (Genewiz). Mutant EAG1 channels with single amino acid substitutions were generated by Genewiz and verified by DNA sequencing. cRNA was transcribed using the T7 mMessage mMachine kit (Thermo Fisher Scientific). Defolliculated Xenopus laevis oocytes were purchased from Ecocyte Bioscience or Xenopus1 and injected with the cRNA using a Nanoinject II oocyte injector (Drummond).
(§2) For EAG1 current recordings, oocytes were placed into a handmade chamber containing a bath solution for the current recording. The currents were recorded using a TEVC technique with OC-725C amplifier (Warner Instruments) and pClamp11 software (Molecular Devices). The signals were digitized using Digidata 1550 (Molecular Devices). Patch pipettes were pulled from borosilicate glass and had resistances of 0.7 to 1.5 MΩ. The recording (bath) solution contained 96 mM NaCl, 4 mM KCl, 0.1 mM CaCl2, 1.8 mM MgCl2, and 5 mM HEPES, pH 7.5. The pipette solution contained 3 M KCl. […]

The target in test [2] is T2, V83G mutant EAG1 channels (Mus musculus, UniProt Q60603, V83G).
T2 construct: expressed in transfected cells; host or cells: Xenopus laevis oocytes injected with cRNA
T2 sequence (Q60603 1-989 V83G): T1 sequence (Q60603 1-989 F87G) with V83G, G87F
Put plainly: TEVC recording, imipramine inhibition, V83G mutant. Format: cell-based. To be noted: V83G mutant EAG1 channel, +50 mV.
From the text: as §1, §2

Consider `CN(C)CCCN1c2ccccc2CCc2ccccc21` [imipramine], for which the half-inhibitory concentration (IC50) in test [1] was found to be 42.8 ± 0.6 µM; in test [2], 44.3 ± 2.6 µM.
